According to patent publication US7531567B2, “Use of a medicament containing an effector of the glutathione metabolism together with α-lipoic acid in kidney replacement therapy” (Serumwerk Bernburg AG, priority 2001, dated 2009):
Where a name gives a salt, the structure may show the parent alone.

Key:
Format in all cases: cell-based, human
peritoneal macrophages [1] = assay: cytokine synthesis of peritoneal macrophages (enzyme immunoassay); details: treatment period of 6 days (n=10); α-lipoic acid 50 μM, ambroxole 10 μM, enalapril 5 μM, captopril 10 μM
Experimental: In parallel to this, in this experimental batch the cell culture supernatants were recovered and the cytokines interleukin-6 (IL-6) and interleukin-1 receptor antagonist (IL-1ra) contained therein, synthesized and secreted by the peritoneal macrophages, were determined.

peritoneal macrophages [2] = assay: degree of differentiation and activation of peritoneal macrophages (CD15, CD11c, CD69, CD71); details: incubation for 6 days, control = 1.0, α-lipoic acid 50 μM, ambroxole 10 μM, enalapril 5 μM, captopril 10 μM; for CD15/69: CD69 on CD15-positive cells; for CD11c/71: CD71 on CD11c-positive cells
Experimental: Peritoneal macrophages were isolated from patients under kidney replacement therapy according to the processes described under example 3 and cultured in the presence of the combinations of α-lipoic acid and effectors of the glutathione metabolism named according to the invention. After incubation for 6 days, the degree of differentiation of the peritoneal macrophages was determined cytofluorometrically by means of the expression of the cell surface antigens CD15 and CD11c, and the degree of cellular activation by means of the coexpression of the activation antigens CD69 on CD15-positive cells and CD71 on CD11c-positive cells.

peritoneal macrophages [3] = assay: stability of membrane-bound thiol restitution in peritoneal macrophages in the dialysis model; details: dialysis model over 14 days; FIG. 7
Experimental: The peritoneal macrophages described under example 3, which were thiol-restituted by means of the combinations used according to the invention, were removed from this test system after 6 days and cultured in a dialysis model over a period of 14 days. For this, the peritoneal macrophages were adapted to mobile collagen IV-coated matrices and brought into contact with conventional dialysis solution 3 times daily for 60 minutes each. This model served here for the induction of a combined […]/osmotic stress. In FIG. 6, the action of the combination of α-lipoic acid and ambroxole (FIG. 6a), and α-lipoic acid and enalapril (FIG. 6b) on the intracellular thiol expression of the peritoneal macrophages in the time kinetics is presented. The membrane expression of thiols was determined by means of the mean fluorescence intensity (mfi) of the sample (3000 cells/measurement) after coupling to a chloro-methylfluorochrome derivative.

peritoneal macrophages [4] = assay: phagocytic ability of peritoneal macrophages (fluorochrome-labelled bacteria); details: treatment period of 6 days; for Phagocytosis rate: α-lipoic acid 50 μM, ambroxole 10 μM, enalapril 5 μM, captopril 10 μM
Experimental: Peritoneal macrophages were isolated analogously to the procedure described under example 3 and cultured ex vivo. The determination of the phagocytic power was carried out by means of a cytofluorometric test at the individual cell level. In this test, the macrophages were cocultured with opsonized and fluorochrome-labelled bacteria. The amount of bacteria taken up in a defined time period was recorded quantitatively by means of the fluorescence intensity in the macrophages and was regarded as a measure of their phagocytic capacity. The influence of the combinations used according to the invention on the phagocytic ability of the peritoneal macrophages after a treatment period of 6 days is presented in Table 3.

T lymphocytes = assay: activation markers CD69, CD25, CD71 of phytohemagglutinin-stimulated T lymphocytes; details: thiol-deficient cells, culture period of 72 hours, FIG. 3
Experimental: In the culture batch described under example 1, human T lymphocytes were stimulated with […] of phyto-hemagglutinin. […] The influence of the combinations used according to the invention on the activation markers CD69 (early activation antigen), CD25 (intermediate activation antigen) and CD71 (late activation antigen) of T lymphocytes was investigated. In FIG. 3, the action of the combination of α-lipoic acid and ambroxole (FIG. 3a), and α-lipoic acid and enalapril (FIG. 3b) on the activation index of T lymphocytes is shown. Compared with normal T lymphocytes (activation index=1.0), in thiol-deficient cells a clear lowering of the activatability, confirming the cellular functional disorder, is to be noted. […] It can thus be concluded that the normalization of the cellular thiol status mediated by the combined use of α-lipoic acid and the respective effectors of the glutathione metabolism is accompanied by a restitution of the cellular functionality.

peritoneal macrophages [5] = assay: cellular thiol expression of peritoneal macrophages in kidney replacement therapy; details: time kinetics over 14 days (n=12); FIG. 4
Experimental: Peritoneal macrophages were isolated from the effluate of the peritoneal dialysis of high-grade renally insufficient patients, taken up in cell culture medium and incubated in a gas incubator at 37° C., a relative humidity of 98% and 7.5% relative air-CO2 content. In order to test the influence of the combinations used according to the invention on the thiol status of the peritoneal macrophages, in each case a fraction was treated with α-lipoic acid, the effector of the glutathione metabolism ambroxole or the ACE inhibitor enalapril or with the combination of α-lipoic acid/ambroxole or α-lipoic acid/enalapril, while in each case a further fraction was used as an untreated control. The determination of the cellular thiol status was carried out by means of the measuring method described under 1. The membrane expression of thiols was determined by means of the mean fluorescence intensity (mfi) of the sample (3000 cells/measurement) after coupling to a chloromethylfluorochrome derivative. In FIG. 4, the effect of the combination of α-lipoic acid and ambroxole (FIG. 4a), and α-lipoic acid and enalapril (FIG. 4b) in the time kinetics over 14 days is shown (n=12).

[6] = tested on: lymphocytes (peripheral immune cells); assay: intracellular thiol expression of peripheral immune cells (CMFDA flow cytofluorimetry); details: α-lipoic acid 50 μM, captopril 10 μM, combination at the same concentrations
Experimental: Peripheral immune cells of healthy donors (n=9) were isolated from the peripheral blood by means of density gradient centrifugation. Lymphocytes having a donor-dependent relative proportion of about 90% in this case normally represent the main fraction of the resulting total population of mononuclear cells. 10% of the mononuclear cells are represented by monocytes. The mononuclear cells obtained were taken up in special cell culture media and incubated in a gas incubator at 37° C., a relative humidity of 98% and 5% relative air-CO2 content. The metabolism of the primarily resting immune cells was activated by means of mitogenic stimulation (0.5 μg/ml of phytohemagglutinin). In order to test the influence of the combinations used according to the invention on the thiol status of thiol-deficient immune cells, these were artificially thiol-depleted. This was carried out by culturing in thiol-deficient media (RPMI 1603) according to tested procedures. Comparison cultures using whole media (RPMI 1640) served for the definition of the best possible normal value under culture conditions. […] Primarily nonfluorogenic CMFDA is in this case passively taken up by the cell. Binding to cytoplasmic thiol groups takes place via the chloromethyl radical. After removal of the acetate radicals by nonspecific cellular esterases, this, now cell membrane-impermeable complex becomes fluorogenic at an excitation wavelength λex=490 nm with an emission wavelength λem=520 nm. The mean fluorescence intensity of the sample (10,000 cells) is directly proportional to the concentration of the intracellular thiol groups. In FIG. 1, the action of the combination of α-lipoic acid and ambroxole (FIG. 1a) and α-lipoic acid and enalapril (FIG. 1b) on the intracellular thiol expression of lymphocytes is shown. […] The data are shown as the ratio of the cellular fluorescence intensity for calibration particles (beads) in each case analyzed in parallel. The active compound concentration of the respective combination is identical to the concentrations of the individual components.

peripheral immune cells = assay: membrane-bound thiol expression of peripheral immune cells (CMTMR flow cytofluorimetry); details: α-lipoic acid 50 μM, captopril 10 μM, combination at the same concentrations
Experimental: Peripheral immune cells of healthy donors (n=9) were isolated from the peripheral blood by means of density gradient centrifugation. Lymphocytes having a donor-dependent relative proportion of about 90% in this case normally represent the main fraction of the resulting total population of mononuclear cells. 10% of the mononuclear cells are represented by monocytes. The mononuclear cells obtained were taken up in special cell culture media and incubated in a gas incubator at 37° C., a relative humidity of 98% and 5% relative air-CO2 content. The metabolism of the primarily resting immune cells was activated by means of mitogenic stimulation (0.5 μg/ml of phytohemagglutinin). In order to test the influence of the combinations used according to the invention on the thiol status of thiol-deficient immune cells, these were artificially thiol-depleted. This was carried out by culturing in thiol-deficient media (RPMI 1603) according to tested procedures. Comparison cultures using whole media (RPMI 1640) served for the definition of the best possible normal value under culture conditions. The expression of membrane-bound thiol groups was likewise determined by flow cytofluorimetry. In this connection, chloromethyltetramethylrhodamine (CMTMR) was employed as a thiol conjugate under the conditions of a blocked membrane potential and of an inhibited diffusion capacity of the cells. The fluorescence intensity of the bound fluorochrome molecules on the cell membrane is in this case in turn proportional to the amount of the thiol groups on the cell surface.

| Structure (SMILES) | IL-1ra (peritoneal macrophages [1]) [ng/10^6 cells] | IL-6 (peritoneal macrophages [1]) [ng/10^6 cells] | CD15/69 (peritoneal macrophages [2]) | CD11c/71 (peritoneal macrophages [2]) | CD11c (peritoneal macrophages [2]) | CD15 (peritoneal macrophages [2]) | membrane-bound thiol expression in the dialysis model (in words) (peritoneal macrophages [3]) | increase in the phagocytosis rate in relation to the untreated control, factor (peritoneal macrophages [4]) | Phagocytosis rate (peritoneal macrophages [4]) | effect on the activation index of T lymphocytes (in words) (T lymphocytes) | further results |
| --- | --- | --- | --- | --- | --- | --- | --- | --- | --- | --- | --- |
| CCOC(=O)[C@H](CCc1ccccc1)NC(C)C(=O)N1CCCC1C(=O)O (stereo in doubt) [Enalapril, 1-{N—[(S)-1-ethoxycarbonyl-3-phenylpropyl]-L-alanyl}-L-proline] | 121.1 ± 16.9 | 41.7 ± 7.3 | 1.19 ± 0.12 | 1.10 ± 0.14 | 1.23 ± 0.22 | 1.21 ± 0.22 | marginal effects | 1.53 | 567 ± 59 mfi/10,000 cells | only equivalent in the case of the effectuation of the CD25 antigen of the α-lipoic acid | – |
| Nc1c(Br)cc(Br)cc1CNC1CCC(O)CC1 (stereo not drawn) [Ambroxole, hydrochloride] | 118.6 ± 21.3 | 51.8 ± 8.1 | 0.98 ± 0.11 | 0.96 ± 0.1 | 1.01 ± 0.09 | 0.98 ± 0.13 | marginal effects | 1.35 | 501 ± 52 mfi/10,000 cells | no influence on one of the three activation markers | effect on the cellular thiol expression of peritoneal macrophages (in words) (peritoneal macrophages [5]): no effect |
| C[C@H](CS)C(=O)N1CCC[C@H]1C(=O)O [Captopril, 1-[(2S)-3-mercapto-2-methylpropionyl]-L-proline] | 129.4 ± 25.1 | 42.9 ± 7.7 | 1.69 ± 0.21 | 1.52 ± 0.16 | 1.26 ± 0.24 | 1.19 ± 0.14 | – | – | 653 ± 43 mfi/10,000 cells | – | intracellular thiol expression ([6]; culture period 0 d): 2.88 ± 0.20 mfiBeads/Ratio; intracellular thiol expression ([6]; culture period 1 d): 2.80 ± 0.21 mfiBeads/Ratio; intracellular thiol expression ([6]; culture period 2 d): 2.76 ± 0.22 mfiBeads/Ratio; intracellular thiol expression ([6]; culture period 3 d): 2.49 ± 0.26 mfiBeads/Ratio; intracellular thiol expression ([6]; culture period 4 d): 2.21 ± 0.36 mfiBeads/Ratio; intracellular thiol expression ([6]; culture period 6 d): 1.83 ± 0.33 mfiBeads/Ratio; intracellular thiol expression ([6]; culture period 8 d): 1.02 ± 0.39 mfiBeads/Ratio; intracellular thiol expression ([6]; culture period 10 d): 0.91 ± 0.46 mfiBeads/Ratio; intracellular thiol expression ([6]; culture period 12 d): 0.76 ± 0.49 mfiBeads/Ratio; intracellular thiol expression ([6]; culture period 14 d): 0.75 ± 0.56 mfiBeads/Ratio; Membrane-bound thiol expression (peripheral immune cells; culture period 0 d): 2.37 ± 0.45 mfiBeads/Ratio; Membrane-bound thiol expression (peripheral immune cells; culture period 1 d): 2.63 ± 0.39 mfiBeads/Ratio; Membrane-bound thiol expression (peripheral immune cells; culture period 2 d): 2.54 ± 0.41 mfiBeads/Ratio; Membrane-bound thiol expression (peripheral immune cells; culture period 3 d): 2.52 ± 0.38 mfiBeads/Ratio; Membrane-bound thiol expression (peripheral immune cells; culture period 4 d): 2.50 ± 0.41 mfiBeads/Ratio; Membrane-bound thiol expression (peripheral immune cells; culture period 6 d): 2.46 ± 0.50 mfiBeads/Ratio; Membrane-bound thiol expression (peripheral immune cells; culture period 8 d): 2.01 ± 0.39 mfiBeads/Ratio; Membrane-bound thiol expression (peripheral immune cells; culture period 10 d): 1.68 ± 0.29 mfiBeads/Ratio; Membrane-bound thiol expression (peripheral immune cells; culture period 12 d): 1.02 ± 0.51 mfiBeads/Ratio; Membrane-bound thiol expression (peripheral immune cells; culture period 14 d): 0.99 ± 0.46 mfiBeads/Ratio |
